Measurements taken from patent US20260272879A1, “ANION-BINDING AROMATIC OLIGOAMIDE MACROCYCLES AND METHODS OF MAKING AND USING SAME” (The Research Foundation for The State University of New York, priority 2023, published 2026).
Read-outs that look alike come from different tables or passages of the source.

Experiments:
[1] = EC50 of halide transport, HPTS assay; assay type: biochemical; settings: POPC LUVs, entrapped HPTS
Procedure: The time course of the emission intensity of intravesicular HPTS, It, was obtained first by ratiometric analysis (Rt=It,450/It,405), followed by normalization according to equation (S1),
where R0=Rt at t=100 s, before the addition of c5a; R∞=Rt at t=350 s upon the addition of Triton X-100. Normalized intensity ratio at 300 s just before addition of Triton X-100 was defined as the transmembrane activity (Y) which was analyzed with the Hill equation (S2) to give effective concentration EC50 and the Hill coefficient n, (S2)
where Y0 is Y in absence of carrier, […], and c is the carrier concentration in a cuvette.

[2] = test system: Human bronchial epithelial (HBE) cells from cystic fibrosis (CF) patients; experiment: Airway surface liquid (ASL) thickness, confocal imaging; assay type: cell-based; settings: CF HBE cultures, c5a 5 μM with 1% DMSO in PBS apically daily for five days
Procedure: Primary Cell Culture. Human bronchial epithelial (HBE) cells from cystic fibrosis (CF) patients (DF508 homozygous) were obtained from the UNC-CF Tissue Culture Core under the auspices of protocols approved by the UNC Institutional Review Board using previously reported methodologies. Cultures on 12-mm permeable supports (Transwell-Clear; Costar) were maintained in a well-humidified (>95%) incubator (5% CO2) at 37° C. during cellular differentiation (3-4 weeks after plating).
Confocal imaging studies. CF HBE cultures were treated with apically with c5a (5 μM in 1% DMSO) or vehicle control (1% DMSO in PBS) daily for 5 days prior to imaging. The height of the luminal airway surface layer (ASL) was visualized by adding a cell-impermeant dye (Texas Red-dextran 70 kDa; 0.1%) to the c5a and vehicle control on the evening prior to imaging. […] The thickness of the ASL layer in c5a and control cultures were measured by high-speed X-Z confocal scanning. […]
Human bronchial epithelial (HBE) cells isolated from CF patients were cultured at the time of lung transplant as a model system for diseased airways. […] The thickness of the ASL layer on the surface of the HBE cell layer can be conveniently measured by determining the thickness of the fluorescently-labeled fluid layer on the airway surface using X-Z confocal scanning microscopy (FIG. 117b). […]

[3] = 1H NMR titration, binding of chloride; settings: DMSO-d6:CDCl3 (15:85, v/v), 25° C., NMR titration (protons a and b)
Procedure: ^1H NMR Titration methods. Titrations of 4c and 6c with anions as their tetra-n-butyl ammonium (TBA) salts were carried out by ^1H NMR (400 MHz on Bruker-400) at room temperature (298 K). 0.5 mL of receptor 4c (5.0 mM) or 6c (2.0 mM) were prepared in the rubber-cap NMR tubes. Aliquots of concentrated TBACl or TBAI solution (50 mM for the titration of 4c and 20 mM for the titration of 6c) containing the same amount of receptors were added into the receptor solution using 20 microliter pipette. An initial ^1H NMR spectrum was collected and additional spectra were obtained after each injection of TBACl or TBAI solution. All titration ^1H NMR spectra were stacked together and the chemical shifts of amide protons were then fitted to the proposed 1:1 binding model using BindFit v0.5 (http://app.supramolecular.org/bindfit/).
Anion binding with four amides, i.e., L1mer-L4mer, was studied in the mixed solvents of CD3CN/CDCl3 (1/9, v/v) by titrating an amide host with 0 to 5 equivalents of tetrabutylammonium (n-Bu4N^+) salt of the corresponding anion. The binding of chloride, bromide, iodide, and nitrate was examined with the four amides in CDCl3 containing 10% CD3CN. The titration data were collected by monitoring the changes in chemical shifts of the backbone amide protons and the inner aromatic protons with varying ratios of the anion guests. Job plots indicate that these linear oligoamides and their anion guests bind in a 1:1 stoichiometry.
The binding of anions by macrocycle 7c was examined in CH3CN/CHCl3 (6/4, v/v) and in DMSO by titrating with various equivalents of the salts of chloride, iodide. nitrate, and dihydrogen phosphate, with tetrabutylammonium (n-Bu4N^+) being the counterion ion. Following the changes in the chemical shifts of backbone amide protons and “inner” aromatic protons allowed the determination of binding constants.
^1H NMR titration methods. Titrations of c5a and c5b with anions as their tetra-n-butylammonium (TBA), tetra-ethylammonium (TEA) and tetra-methylammonium (TMA) salts were carried out by ^1H NMR (400 MHz) at 25° C. […]

[4] = Halide transport, lucigenin assay; assay type: biochemical; settings: POPC LUVs, inside 100 mM NaNO3 + 1 mM lucigenin, outside 100 mM NaX, pH 7.0
Description: Determination of halide transport with the lucigenin assay.

CCCCCCCCOCC(C)(C)C(=O)Nc1ccc2cc1C(=O)Nc1ccc(NC(=O)C(C)(C)COCCCCCCCC)c(c1)C(=O)Nc1ccc(NC(=O)C(C)(C)COCCCCCCCC)c(c1)C(=O)Nc1ccc(NC(=O)C(C)(C)COCCCCCCCC)c(c1)C(=O)Nc1ccc(NC(=O)C(C)(C)COCCCCCCCC)c(c1)C(=O)N2 [c5a]
EC50 ([1]; c5a 0.05 to 10 μM, base pulse, read-out: EC50 for the transport of Br^−): 4.11 µM | EC50 ([1]; c5a 0.05 to 10 μM, base pulse, read-out: EC50 for the transport of Cl^−): 0.31 µM | EC50 ([1]; c5a up to 10 μM, too large to be measured, read-out: EC50 for the transport of I^−): > 10 µM | increase of ASL thickness vs control CF [2]: more than 50% | ASL thickness ([2]; X-Z confocal): 7.8±1.7 μm | Association constant Ka, 1:1 complex with Cl^− [3]: (4.31 ± 0.12) × 10^3 M^−1 | sequence of halide transport efficiency (reduction of lucigenin fluorescence) [4]: Cl^−>Br^−>I^−
